Target: hKOPR (Homo sapiens, UniProt P41145)
Type: biochemical

hKOPR, sequence (P41145 whole entry): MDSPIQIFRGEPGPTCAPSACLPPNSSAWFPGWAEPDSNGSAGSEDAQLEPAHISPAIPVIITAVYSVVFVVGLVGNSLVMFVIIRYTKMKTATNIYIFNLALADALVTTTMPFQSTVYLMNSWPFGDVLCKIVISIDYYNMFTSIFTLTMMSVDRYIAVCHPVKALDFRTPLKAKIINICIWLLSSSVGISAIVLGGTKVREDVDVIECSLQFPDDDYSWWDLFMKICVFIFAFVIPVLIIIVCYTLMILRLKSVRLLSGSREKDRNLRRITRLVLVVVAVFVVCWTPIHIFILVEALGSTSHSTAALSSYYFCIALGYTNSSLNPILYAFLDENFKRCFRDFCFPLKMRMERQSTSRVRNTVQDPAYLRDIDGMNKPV

SMILES	KOPR agonism in the [35S]GTPγS functional assay (in words)	KOPR antagonism: effect on U50,488-induced [35S]GTPγS binding	reduction of [35S]GTPγS binding induced by U50,488
COC(=O)[C@@H]1C[C@H](OC(C)=O)C(=O)[C@H]2[C@@]1(C)CC[C@H]1C(=O)O[C@H](c3ccoc3Br)C[C@]21C [Compound 2, 16-bromosalvinorin A]	highly potent KOPR agonist		
COC(=O)[C@@H]1C[C@H](OC(C)=O)C(=O)[C@H]2[C@@]1(C)CC[C@H]1C(=O)O[C@@H](c3ccoc3)C[C@]21C [Compound 6, 12-epi-Salvinorin A]	partial agonist effects	partially blocked the effect of U50,488	significantly reduced
COC(=O)[C@@H]1C[C@H](OC(C)=O)C(=O)[C@H]2[C@@]1(C)CC[C@H]1C(=O)O[C@H](C(=O)O)C[C@]21C [Compound 7]	weak agonist		
COC(=O)[C@@H]1C[C@H](OC(C)=O)C(=O)[C@H]2[C@@]1(C)CC[C@H]1C(=O)O[C@H](COC(C)=O)C[C@]21C [Compound 11]	weak KOPR agonist		
